Residues, ends and D or L forms follow the SMILES beside them. No end group written: not given here.
Assays:
[1] = Maximal solubility of the synthetic peptides in water and in DMSO (sheet Peptide_mixes); format: physicochemical; conditions: for max solve (DMSO): in DMSO, number in brackets in the cell; for max solve water: in water, number before the bracket in the cell
Excerpt: Supplement elife-90674-supp3.xlsx, sheet "Peptide_mixes"

[2] = system: QITRFa.R196 (R196, GPR196); experiment: GPCR deorphanization dose-response assay (HEK293, G5A luminescence); format: cell-based, Nematostella vectensis; conditions: drc fit
Protocol: (§1) To experimentally identify Nematostella neuropeptide GPCRs, we tested our selection of 161 N. vectensis GPCRs in a pharmacological assay for activation by peptides from our peptide library (Figure 3A, Supplementary files 3 and 8). We expressed the candidate GPCRs in mammalian cells, together with a promiscuous Gqi protein and a luminescent G5A reporter (Figure 3A, Supplementary file 7). The peptides were separated into different mixes (Supplementary file 3), which were then tested on each GPCR (Supplementary file 4). Receptor-mix combinations that gave a positive signal were further resolved by testing the individual peptides of the mix to identify the activating ligand (Supplementary file 4). […]
(§2) A detailed step-by-step protocol has been published in [Thiel et al., 2023]. […] For each well, 10 µl OptiMEM (without FBS), 70 ng of GPCR containing plasmid, 70 ng of Gqi5/9 plasmid, 10–20 ng of G5A plasmid (to increase luminescence values of our HEK293 cell line), and 0.45–0.48 µl T5000/PEI were mixed and incubated for 20 min at room temperature. […] Readings were performed with a FlexStation 3 Multi-mode Microplate reader (Molecular Devices), for a period of 60 s per well, ligand injection after 15–18 s, and the whole plate was read with the Flex option. […] The readout data for the final dose-response curves is provided in Supplementary file 9 and as .csv files in the repository in the data folder. […]

QGRFa.R070 (R70, GPR70) = experiment: as above; format: cell-based, Nematostella vectensis; conditions: drc fit
Protocol: as §1, §2

| Compound | max solve (DMSO) [1] | max solve water [1] | Slope of the dose-response curve [2] | Slope of the dose-response curve (QGRFa.R070 (R70, GPR70)) |
| --- | --- | --- | --- | --- |
| C[C@@H](O)[C@H](NC(=O)[C@H](Cc1c[nH]cn1)NC(=O)[C@H](Cc1ccccc1)NC(=O)[C@H](Cc1ccc(O)cc1)NC(=O)[C@@H]1CCCN1C(=O)[C@@H]1CCC(=O)N1)C(=O)N[C@@H](CC(=O)O)C(=O)N[C@@H](CC(N)=O)C(=O)N[C@@H](CO)C(=O)N1CCC[C@H]1C(=O)N[C@@H](CC(N)=O)C(=O)N[C@@H](CCCNC(=N)N)C(=O)N[C@@H](Cc1ccccc1)C(N)=O [NRFa] (HELM PEPTIDE1{[Glp].P.Y.F.H.T.D.N.S.P.N.R.F.[am]}$$$$V2.0) | 5 (5) mg/ml | 5 (5) mg/ml | – | – |
| CSCC[C@H](NC(=O)[C@H](CC(N)=O)NC(=O)[C@@H]1CCCN1C(=O)[C@H](CCSC)NC(=O)[C@@H]1CCC(=O)N1)C(=O)N[C@H](C(=O)N1CCC[C@H]1C(=O)N[C@@H](Cc1ccccc1)C(=O)N[C@@H](Cc1c[nH]cn1)C(N)=O)C(C)C [PFHa] (HELM PEPTIDE1{[Glp].M.P.N.M.V.P.F.H.[am]}$$$$V2.0) | 10 mg/mL | 0 mg/mL | – | – |
| N=C(N)NCCC[C@H](NC(=O)[C@@H]1CCCN1C(=O)CN)C(=O)NCC(N)=O [PRGa] (H-GPRG-NH2) | 10 (10) mg/ml | 10 (10) mg/ml | – | – |
| N=C(N)NCCC[C@H](NC(=O)CNC(=O)[C@@H]1CCC(=O)N1)C(=O)N[C@@H](Cc1ccccc1)C(N)=O [QGRFa] (HELM PEPTIDE1{[Glp].G.R.F.[am]}$$$$V2.0) | 10 mg/mL | 5 mg/mL | – | – |
| CC[C@H](C)[C@H](NC(=O)[C@@H]1CCC(=O)N1)C(=O)N[C@H](C(=O)N[C@@H](CCCNC(=N)N)C(=O)N[C@@H](Cc1ccccc1)C(N)=O)[C@@H](C)O [RFa0] (HELM PEPTIDE1{[Glp].I.T.R.F.[am]}$$$$V2.0) | 5 (5) mg/ml | 5 (5) mg/ml | – | – |
| N=C(N)NCCC[C@H](NC(=O)CNC(=O)[C@H](CCC(N)=O)NC(=O)[C@H](CC(=O)O)NC(=O)[C@H](CCC(=O)O)NC(=O)[C@H](CCCNC(=N)N)NC(=O)CNC(=O)[C@H](Cc1ccccc1)NC(=O)[C@H](CCCNC(=N)N)NC(=O)CNC(=O)[C@@H]1CCC(=O)N1)C(=O)N[C@@H](Cc1ccccc1)C(N)=O [RFa1] (HELM PEPTIDE1{[Glp].G.R.F.G.R.E.D.Q.G.R.F.[am]}$$$$V2.0) | 10 mg/mL | 5 mg/mL | – | – |
| CC[C@H](C)[C@H](NC(=O)[C@H](CC[S+](C)[O-])NC(=O)[C@@H]1CCCN1C(=O)[C@@H]1CCCN1C(=O)CN)C(=O)N[C@@H](CCCCN)C(=O)N[C@H](C(=O)N1CCC[C@H]1C(=O)N[C@H](C(=O)N[C@@H](CCCNC(=N)N)C(=O)N[C@@H](Cc1c[nH]cn1)C(N)=O)C(C)C)[C@@H](C)CC (stereo partly shown) [RHa2] (HELM PEPTIDE1{G.P.P.[CS(=O)CC[C@H](N[*:1])C(=O)[*:2]].I.K.I.P.V.R.H.[am]}$$$$V2.0) | 10 mg/mL | 5 mg/mL | – | – |
| CC(C)C[C@H](NC(=O)[C@H](Cc1ccc(O)cc1)NC(=O)[C@@H]1CCC(=O)N1)C(=O)N[C@@H](CC(=O)O)C(=O)N1CCC[C@H]1C(=O)N[C@@H](CCCNC(=N)N)C(=O)N1CCC[C@H]1C(N)=O [RHa5] (HELM PEPTIDE1{[Glp].Y.L.D.P.R.P.[am]}$$$$V2.0) | 15 mg/mL | 10 mg/mL | – | – |
| CC(C)C[C@H](NC(=O)[C@H](Cc1ccccc1)NC(=O)[C@H](C)NC(=O)[C@H](CC(=O)O)NC(=O)[C@@H]1CCC(=O)N1)C(=O)N1CCC[C@H]1C(=O)N[C@@H](CCCCN)C(=O)N1CCC[C@H]1C(=O)N[C@@H](CCCNC(=N)N)C(=O)N1CCC[C@H]1C(N)=O [RPa1] (HELM PEPTIDE1{[Glp].D.A.F.L.P.K.P.R.P.[am]}$$$$V2.0) | 10 (10) mg/ml | 10 (10) mg/ml | – | – |
| CC[C@H](C)[C@H](NC(=O)[C@@H]1CCCN1C(=O)[C@@H](NC(=O)[C@H](CCCNC(=N)N)NC(=O)[C@H](Cc1ccccc1)NC(=O)[C@@H]1CCCN1C(=O)[C@@H]1CCCN1C(=O)[C@@H]1CCC(=O)N1)[C@@H](C)CC)C(N)=O [pIPIa] (HELM PEPTIDE1{[Glp].P.P.F.R.I.P.I.[am]}$$$$V2.0) | 10 mg/mL | 0 mg/mL | – | – |
| APGLW-NH2 [GLWa4] | 10 (10) mg/ml | 10 (10) mg/ml | – | – |
| APPGNGEGEAGFIPWFS-NH2 [WFSa] | 2 mg/mL | 0 mg/mL | – | – |
| APRGGRDAPRG-NH2 [PRGa5] | 10 (10) mg/ml | 10 (10) mg/ml | – | – |
| APRGGRSLLDLLAAPRG-NH2 [PRGa1] | 10 (10) mg/ml | 10 (10) mg/ml | – | – |
| DSSPPQW [QW2] | 10 mg/mL | 5 mg/mL | – | – |
| EIQPGNMKVWSDPF [PNX14] | 10 mg/mL | 5 mg/mL | – | – |
| FPPGFHRP-NH2 [HRPa] | 10 mg/mL | 5 mg/mL | – | – |
| GPPGLW-NH2 [GLWa3] | 10 mg/mL | 5 mg/mL | – | – |
| GPPMIKIPVRH-NH2 [VRHa] | 10 (10) mg/ml | 10 (10) mg/ml | – | – |
| GPPPIYLPVRP-NH2 [RHa3] | 10 (10) mg/ml | 10 (10) mg/ml | – | – |
| GPPQGLRW-NH2 [LRWa3] | 5 (5) mg/ml | 5 (5) mg/ml | – | – |
| GPRGGRATEFGPRG-NH2 [PRGa3] | 10 (10) mg/ml | 10 (10) mg/ml | – | – |

| Compound | max solve (DMSO) [1] | max solve water [1] | Slope of the dose-response curve [2] | Slope of the dose-response curve (QGRFa.R070 (R70, GPR70)) |
| --- | --- | --- | --- | --- |
| GPRGGREVNLEGPRG-NH2 [PRGa2] | 5 (5) mg/ml | 5 (5) mg/ml | – | – |
| GPRGGRSYDGPRG-NH2 [PRGa4] | 10 mg/mL | 5 mg/mL | – | – |
| GYYRDNIQETRQYLDPRP-NH2 [RHa4] | 10 mg/mL | 5 mg/mL | – | – |
| IPPQGFRFSQW-NH2 [QWa] | 10 mg/mL | 0 mg/mL | – | – |
| IPPQGLRFNQW-NH2 [QWa2] | 10 mg/mL | 5 mg/mL | – | – |
| KGIKQEEIQPGNMKVWSDPF [PNX20] | 10 mg/mL | 5 mg/mL | – | – |
| LPPRFGGQI-NH2 [QIa] | 10 mg/mL | 5 mg/mL | – | – |
| MPEQDANPQTRFD-NH2 [RFa2] | 10 mg/mL | 5 mg/mL | – | – |
| NPPIDLGPAYFHIR-NH2 [HIRa5] | 10 mg/mL | 5 mg/mL | – | – |
| NPPQPPFRIPI-NH2 [IPIa] | 10 mg/mL | 5 mg/mL | – | – |
| QPGNMKVWSDPF [PNX12] | 5 mg/mL | 0 mg/mL | – | – |
| RSNRVVIHTGANPTMAPLRIPF-NH2 [IPFa] | 10 mg/mL | 5 mg/mL | – | – |
| SPKPPGLW-NH2 [GLWa5] | 10 (10) mg/ml | 10 (10) mg/ml | – | – |
| SPPQWKLDSSPPQW [QW3] | 10 mg/mL | 5 mg/mL | – | – |
| SPWSCSLRP-NH2 [LRPa1] | 10 (10) mg/ml | 10 (10) mg/ml | – | – |
| SPWSYSLRP-NH2 [LRPa2] | 10 (10) mg/ml | 10 (10) mg/ml | – | – |
| TPPQW [QW1] | 10 mg/mL | 2 mg/mL | – | – |
| TPPSNI-NH2 [SNIa] | 5 mg/mL | 2 mg/mL | – | – |
| WPPRP-NH2 [FRPa1] | 10 (10) mg/ml | 10 (10) mg/ml | – | – |
| YPPFLELGQPSYFHIR-NH2 [HIRa2] | 10 mg/mL | 5 mg/mL | – | – |
| YPPLNTV-NH2 [NTVa] | 10 mg/mL | 5 mg/mL | – | – |
| pyrQITRFamide [synthetic N. vectensis RFamide neuropeptide pyrQITRFamide] | – | – | -0.6635 | -1.343 |

— PMC11087051, “Large-scale deorphanization of Nematostella vectensis neuropeptide G protein-coupled receptors supports the independent expansion of bilaterian and cnidarian peptidergic systems” (eLife, 2024)
